Experimental data from PMC10180076, “Novel Biologically Active N-Substituted Benzimidazole Derived Schiff Bases: Design, Synthesis, and Biological Evaluation” (Molecules, 2023).
In brackets after ≈: the same amount, converted by molar mass.

Assays:
sindbis virus = test: Antiviral CPE reduction assay, Sindbis virus in Huh-7; assay type: cell-based; details: Huh-7 cells, 100 CCID50, MTS
NCI-H460, lung carcinoma = test: Proliferation assay (MTS, 72 h), NCI-H460; assay type: cell-based, human; details: Homo sapiens, NCI-H460
From the text: (§1) Human cancer cells used in this manuscript, namely Capan-1, HCT-116, NCI-H460, LN-229, HL-60, K-562, and Z-138, were acquired from the American Type Culture Collection (ATCC, Manassas, VA, USA), while the DND-41 cell line was purchased from the Deutsche Sammlung von Mikroorganismen und Zellkulturen (DSMZ Leibniz-Institut, Braunschweig, Germany). Culture media were purchased from Gibco Life Technologies, Merelbeke, Belgium, and supplemented with 10% fetal bovine serum (HyClone, Cytiva, Marlborough, MA, USA). Vincristine and docetaxel, which were used as the reference inhibitors, were purchased from Selleckchem (Munich, Germany). Stock solutions were prepared in DMSO.
(§2) Adherent cell lines LN-229, HCT-116, and NCI-H460 and Capan-1 cells were seeded at a density between 500 and 1500 cells per well, in 384-well tissue culture plates (Greiner, Kremsmünster, Austria). After overnight incubation, the cells were treated with seven different concentrations of the test compounds, ranging from 100 to 0.006 µM.
(§3) Suspension cell lines HL-60, K-562, Z-138, and DND-41 were seeded at densities ranging from 2500 to 5500 cells per well in 384-well culture plates containing the test compounds at the same concentration points. The cells were incubated for 72 h with the compounds and were then analyzed using the CellTiter 96® AQueous One Solution Cell Proliferation Assay (MTS) reagent (Promega, Madison, WI, USA) according to the manufacturer’s instructions. […] The compounds were tested in two independent experiments.

[1] = tested on: HCT-116, colorectal carcinoma; test: Proliferation assay (MTS, 72 h), HCT-116; assay type: cell-based, human; details: Homo sapiens, HCT-116
From the text: as §1, §2, §3

[2] = tested on: influenza B (B/Ned/537/05); test: Antiviral CPE reduction assay, influenza B in MDCK; assay type: cell-based; details: Influenza B virus; MDCK cells, 100 CCID50, MTS
[3] = tested on: Z-138, non-Hodgkin lymphoma; test: Proliferation assay (MTS, 72 h), Z-138; assay type: cell-based, human; details: Homo sapiens, Z-138
From the text: as §1, §2, §3

in vitro [4] = details: dog
Zika virus (Mr776) = test: Antiviral CPE reduction assay, Zika virus in Huh-7; assay type: cell-based; details: Huh-7 cells, 100 CCID50, MTS
[5] = tested on: herpes simplex virus-1 (HSV-1 KOS); test: Antiviral CPE reduction assay, HSV-1 KOS in HEL 299; assay type: cell-based; details: Human alphaherpesvirus 1; HEL 299 cells, 100 CCID50, MTS
[6] = tested on: K-562, chronic myeloid leukemia; test: Proliferation assay (MTS, 72 h), K-562; assay type: cell-based, human; details: Homo sapiens, K562
From the text: as §1, §2, §3

[7] = tested on: influenza A/H3N2 (A/HK/7/87); test: Antiviral CPE reduction assay, influenza A/H3N2 in MDCK; assay type: cell-based; details: Influenza A virus, MDCK cells, 100 CCID50, MTS
[8] = tested on: respiratory syncytial virus A (Long); test: Antiviral CPE reduction assay, RSV A in HEL 299; assay type: cell-based; details: human respiratory syncytial virus; HEL 299 cells, 100 CCID50, MTS
[9] = tested on: influenza A/H1N1 (A/Ned/378/05); test: Antiviral CPE reduction assay, influenza A/H1N1 in MDCK; assay type: cell-based; details: Influenza A virus, MDCK cells, 100 CCID50, MTS
[10] = tested on: DND-41, acute lymphoblastic leukemia; test: Proliferation assay (MTS, 72 h), DND-41; assay type: cell-based, human; details: Homo sapiens, DND41
From the text: as §1, §2, §3

[11] = tested on: Capan-1, pancreatic adenocarcinoma; test: Proliferation assay (MTS, 72 h), Capan-1; assay type: cell-based, human; details: Homo sapiens, CAPAN-1
From the text: as §1, §2, §3

in vitro [12] = details: human
[13] = tested on: human coronavirus HCoV-229E; test: organism not typed; assay type: cell-based; details: HEL 299 cells, 100 CCID50, MTS; read-out: Antiviral Activity (EC50/μM) HCoV 229E HEL 299
[14] = tested on: HL-60, acute myeloid leukemia; test: Proliferation assay (MTS, 72 h), HL-60; assay type: cell-based, human; details: Homo sapiens, HL-60
From the text: as §1, §2, §3

[15] = tested on: human coronavirus HCoV-NL63; test: Antiviral CPE reduction assay, HCoV-NL63 in Huh-7; assay type: cell-based; details: Huh-7 cells, 100 CCID50, MTS
[16] = tested on: yellow fever virus (YFV 17D); test: microbe, parasite or virus in culture; assay type: cell-based; details: Huh-7, read-out: Antiviral Activity (EC50/μM) YFV 17D Huh-7
LN-229, glioblastoma = test: Proliferation assay (MTS, 72 h), LN-229; assay type: cell-based, human; details: Homo sapiens, LN-229
From the text: as §1, §2, §3

[17] = tested on: human coronavirus HCoV-OC43; test: microbe, parasite or virus in culture; assay type: cell-based; details: Betacoronavirus 1, OC43; HEL 299 cells, 100 CCID50, MTS; read-out: Antiviral Activity (EC50/μM) HCoV OC43 HEL 299
in vitro [18] = details: human; remark: listed apart in the source
E. coli efflux del = test: microbe, parasite or virus in culture; assay type: cell-based; details: Table 2 prints no unit; μM for compounds; antibiotics tested at 0.125–64 µg/mL
Procedure: (§4) Selected bacterial strains were Gram-negative E. coli, K. pneumoniae, A. baumannii and P. aeruginosa and Gram-positive S. aureus, S. pneumoniae, and E. faecalis. The synthesized compounds were prepared as 10 mM DMSO solutions and tested in a final concentration range of 0.2–100 µM [39].
(§5) Broth microdilution testing was performed according to CLSI (Clinical Laboratory Standards Institute) guidelines. The MIC (minimal inhibitory concentration) value was defined as the last tested concentration of the compound at which there was no visible growth of bacteria. Inoculums for each microorganism were prepared using the direct colony suspension method, where broth solutions that achieved turbidity equivalent to 0.5 McFarland standard were additionally diluted 100× with Ca adjusted MH media (Becton Dickinson, Franklin Lakes, NJ, USA). All of the test plates were incubated for 16–24 h at 37 °C.
(§6) Methods for dilution of antimicrobial susceptibility tests for bacteria that grow aerobically followed M07, 11th edition, 2018, and Clinical and Laboratory Standards Institute (CLSI) guidelines. Performance standards for antimicrobial susceptibility testing followed the M100, 28th edition, 2018.

E. faecalis ATCC 29212 = test: Broth microdilution MIC, E. faecalis; assay type: cell-based; details: Enterococcus faecalis, ATCC29212; read-out: MIC against E. faecalis
Procedure: as §4, §5, §6

| SMILES | EC50 (sindbis virus) | IC50 (NCI-H460, lung carcinoma) | IC50 [1] | EC50 [2] | IC50 [3] | CC50 (in vitro [4]) | EC50 (Zika virus (Mr776)) | EC50 [5] | IC50 [6] | EC50 [7] | EC50 [8] | EC50 [9] | IC50 [10] | IC50 [11] | CC50 (in vitro [12]) | EC50 [13] | IC50 [14] | EC50 [15] | EC50 [16] | IC50 (LN-229, glioblastoma) | other results |
| --- | --- | --- | --- | --- | --- | --- | --- | --- | --- | --- | --- | --- | --- | --- | --- | --- | --- | --- | --- | --- | --- |
| CN(C)c1ccc(/C=N/c2nc3ccc(C#N)cc3n2C)cc1 [Compound 34, (E)-2-((4-(Dimethylamino)benzylidene)amino)-1-methyl-1H-benzo[d]imidazole-6-carbonitrile] | > 100 µM | > 100 µM | > 100 µM | 83.5 µM | > 100 µM | > 100 µM | > 100 µM | > 100 µM | > 100 µM | > 100 µM | > 100 µM | > 100 µM | > 100 µM | > 100 µM | > 100 µM | > 100 µM | > 100 µM | 82.8 µM | > 100 µM | > 100 µM | EC50 [17]: > 100 µM; CC50 (in vitro [18]): > 100 µM |
| CCN(CC)c1ccc(/C=N/c2nc3ccc(C#N)cc3n2C)c(O)c1 [Compound 36, (E)-2-((4-(Diethylamino)-2-hydroxybenzylidene)amino)-1-methyl-1H-benzo[d]imidazole-6-carbonitrile] | > 100 µM | > 100 µM | > 100 µM | > 100 µM | > 100 µM | > 100 µM | > 100 µM | > 100 µM | > 100 µM | > 100 µM | > 100 µM | > 100 µM | 41.4 µM | > 100 µM | > 100 µM | 88.4 µM | > 100 µM | > 100 µM | > 100 µM | > 100 µM | EC50 [17]: > 100 µM; CC50 (in vitro [18]): > 100 µM |
| CN(C)c1ccc(/C=N/c2nc3ccccc3n2-c2ccccc2)cc1 [Compound 38, (E)-N,N-Dimethyl-4-(((1-phenyl-1H-benzo[d]imidazol-2-yl)imino)methyl)aniline] | > 100 µM | > 100 µM | > 100 µM | > 100 µM | > 100 µM | > 100 µM | > 100 µM | > 100 µM | > 100 µM | > 100 µM | > 100 µM | > 100 µM | > 100 µM | > 100 µM | > 100 µM | > 100 µM | > 100 µM | > 100 µM | > 100 µM | > 100 µM | MIC E. coli efflux del (E. coli efflux del): >64; melting point: 204 to 207 °C; EC50 [17]: 94.8 µM; CC50 (in vitro [18]): > 100 µM; MIC (E. faecalis ATCC 29212): 32 µM (≈ 10.9 µg/mL) |
| CCN(CC)c1ccc(/C=N/c2nc3ccc(C#N)cc3n2-c2ccccc2)c(O)c1 [Compound 41, (E)-2-((4-(Diethylamino)-2-hydroxybenzylidene)amino)-1-phenyl-1H-benzo[d]imidazole-6-carbonitrile] | > 100 µM | > 100 µM | > 100 µM | > 100 µM | 35.2 µM | 71.6 µM | > 100 µM | > 100 µM | > 100 µM | > 100 µM | > 100 µM | > 100 µM | 76.3 µM | 69.5 µM | > 100 µM | > 100 µM | 49.6 µM | > 100 µM | > 100 µM | > 100 µM | MIC E. coli efflux del (E. coli efflux del): >64; melting point: 111 to 114 °C; EC50 [17]: 89.5 µM; CC50 (in vitro [18]): > 100 µM; MIC (E. faecalis ATCC 29212): 32 µM (≈ 13.1 µg/mL) |
| C[C@@H](O)[C@H]1C(=O)N2C(C(=O)O)=C(S[C@@H]3CN[C@H](C(=O)N(C)C)C3)[C@H](C)[C@H]12 [Meropenem, meropenem, reference compound] |  |  |  |  |  |  |  |  |  |  |  |  |  |  |  |  |  |  |  |  | MIC E. coli efflux del (E. coli efflux del): 8 |
